The source of these data is patent publication US8710233B2 (Gruenenthal GmbH, priority 2005, dated 2014).

pIC50, pKi: −log10 of the molar value.

One experiment has as its target T1, vanilloid receptor (VR1) (Homo sapiens, UniProt Q8NER1).
T1 construct: expressed in transfected cells; host or cells: CHO K1 cells (ECACC), stably transfected
Nature of the experiment: FLIPR Ca2+ influx assay on CHO K1 cells transfected with the VR1 gene (pharmacological method II). In kind it is cell-based. The note with it: table 4; capsaicin; read-out: Ki (human) Cap.

The next experiment concerns the target VR1/TRPV1 receptor (Homo sapiens, UniProt Q8NER1). Nature of the experiment: IC50 (human) after pH stimulus. In kind it is cell-based. The settings on record: for pIC50: table 4; for inhibition at 1 µM / inhibition in percent, IC50 (human) after pH stimulus: ne = no effect, @ 1 μM.
Setting [1] is: read-out: inhibition in percent, IC50 (human) after pH stimulus.

Chain of VR1/TRPV1 receptor (Q8NER1 whole entry): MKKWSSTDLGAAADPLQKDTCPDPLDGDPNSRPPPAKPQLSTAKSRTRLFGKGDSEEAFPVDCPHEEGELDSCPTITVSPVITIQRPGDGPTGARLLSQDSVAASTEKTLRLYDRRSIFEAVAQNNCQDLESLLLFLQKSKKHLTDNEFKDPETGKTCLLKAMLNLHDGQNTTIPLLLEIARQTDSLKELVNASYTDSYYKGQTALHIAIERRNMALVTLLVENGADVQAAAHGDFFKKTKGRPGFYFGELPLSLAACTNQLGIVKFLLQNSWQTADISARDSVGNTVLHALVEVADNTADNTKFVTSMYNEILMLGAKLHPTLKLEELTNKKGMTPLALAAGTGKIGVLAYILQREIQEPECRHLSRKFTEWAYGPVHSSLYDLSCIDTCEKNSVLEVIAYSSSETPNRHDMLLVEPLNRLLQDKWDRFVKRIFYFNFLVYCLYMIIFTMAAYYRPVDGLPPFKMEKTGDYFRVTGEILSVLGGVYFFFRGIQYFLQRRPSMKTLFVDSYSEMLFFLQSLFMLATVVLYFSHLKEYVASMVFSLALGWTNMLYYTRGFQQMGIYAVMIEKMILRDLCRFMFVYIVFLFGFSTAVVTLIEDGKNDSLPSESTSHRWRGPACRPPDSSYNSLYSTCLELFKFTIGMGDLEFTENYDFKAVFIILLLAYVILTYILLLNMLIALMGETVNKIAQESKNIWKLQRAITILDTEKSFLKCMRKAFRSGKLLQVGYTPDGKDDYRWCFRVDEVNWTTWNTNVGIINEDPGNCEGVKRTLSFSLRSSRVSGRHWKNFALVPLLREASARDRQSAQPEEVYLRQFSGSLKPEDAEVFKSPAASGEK
T1 sequence (Q8NER1 whole entry): as above

As usually defined, the pKi is the Ki on a negative log10 scale, so that one unit is a factor of ten. For orientation: pIC50 means −log10 of the IC50, conventionally taken in molar units. `CC(C(=O)NCc1ccc(C(F)(F)F)nc1OC1CCC(C)(C)CC1)c1ccc(NS(C)(=O)=O)c(F)c1` (centres unmarked) [Example 338, N-[2-(4,4-dimethyl-cyclohexyloxy)-6-trifluoromethyl-pyridin-3-ylmethyl]-2-(3-fluoro-4-methylsulfonamido-phenyl)-propionamide]: at vanilloid receptor (VR1), the pKi is 9.05. Also, the pIC50 against VR1/TRPV1 receptor is 6.85.
Take `CC(C(=O)NCc1ccc(C(F)(F)F)nc1OC1CCC(C(F)(F)F)CC1)c1ccc(NS(C)(=O)=O)c(F)c1` (centres unmarked) [Example 339, 2-(3-fluoro-4-methylsulfonamido-phenyl)-N-[6-trifluoromethyl-2-(4-trifluoromethyl-cyclohexyloxy)-pyridin-3-ylmethyl]-propionamide]: the pKi on vanilloid receptor (VR1) was 9.52. Besides, the pIC50 against VR1/TRPV1 receptor is 7.85.
With `CC(C(=O)NCc1ccc(C(F)(F)F)nc1OC1CCC(C(F)(F)F)CC1)c1ccc(NS(C)(=O)=O)c(F)c1` (centres unmarked) [Example 340, 2-(3-fluoro-4-methylsulfonamido-phenyl)-N-[6-trifluoromethyl-2-(4-trifluoromethyl-cyclohexyloxy)-pyridin-3-ylmethyl]-propionamide], at vanilloid receptor (VR1), the negative-log Ki (pKi) is 8.92. The same compound showed a negative logarithm of the IC50 (pIC50) on VR1/TRPV1 receptor of 6.55.
Turning to `CC(C(=O)NCc1ccc(C(F)(F)F)nc1OC1CCN(C(=O)OC(C)(C)C)CC1)c1ccc(NS(C)(=O)=O)c(F)c1` (centres unmarked) [Example 341, 4-(3-{[2-(3-fluoro-4-methylsulfonamido-phenyl)-propionylamino]-methyl}-6-trifluoromethyl-pyridin-2-yloxy)-piperidine-1-carbonic acid tert-butyl ester], the pKi at vanilloid receptor (VR1) was 8.89. The pIC50 on VR1/TRPV1 receptor is 6.53.
For the compound `CC(C(=O)NCc1ccc(C(F)(F)F)nc1NCC1CCN(C(=O)OC(C)(C)C)CC1)c1ccc(NS(C)(=O)=O)c(F)c1` (centres unmarked) [Example 342, 4-[(3-{[2-(3-fluoro-4-methylsulfonamido-phenyl)-propionylamino]-methyl}-6-trifluoromethyl-pyridin-2-ylamino)-methyl]-piperidine-1-carbonic acid tert-butyl ester], on vanilloid receptor (VR1), the pKi was 7.71. The compound also showed a pIC50 against VR1/TRPV1 receptor of 5.94.
What is called inhibition is the change of the read-out against control, counted positive when it falls. On to `Cc1ccc(Oc2nc(C(F)(F)F)ccc2CNC(=O)C(C)c2ccc(NS(C)(=O)=O)c(F)c2)cc1` (centres unmarked) [Example 345, 2-(3-fluoro-4-methylsulfonamido-phenyl)-N-(2-p-tolyloxy-6-trifluoromethyl-pyridin-3-ylmethyl)-propionamide], for which the pKi on vanilloid receptor (VR1) is 8.55. At VR1/TRPV1 receptor (setting [1]), the inhibition at 0.1 µM amounted to 3%, the inhibition at 1 µM was 38% and the inhibition at 5 µM is 45%.
`CC(C(=O)NCc1ccc(C(F)(F)F)nc1/C=C/C1CCCCC1)c1ccc(NS(C)(=O)=O)c(F)c1` (centres unmarked) [Example 346, N-[2-(2-cyclohexyl-vinyl)-6-trifluoromethyl-pyridin-3-ylmethyl]-2-(3-fluoro-4-methylsulfonamido-phenyl)-propionamide]: the pKi on vanilloid receptor (VR1) was 9.15. In addition, the negative-log IC50 (pIC50) against VR1/TRPV1 receptor is 7.18.
As to `Cc1cc(C(F)(F)F)nc(OC2CCCC2)c1CNC(=O)C(C)c1ccc(NS(C)(=O)=O)c(F)c1` (centres unmarked) [Example 349], the pKi on vanilloid receptor (VR1) is 7.36. Also, the “inhibition in percent, IC50 (human) after pH stimulus” value on VR1/TRPV1 receptor was “ne @ 1 μM”.
On to `COc1cc(OC)cc(-c2cc(C(F)(F)F)ccc2CNC(=O)C(C)c2ccc(NS(C)(=O)=O)c(F)c2)c1` (centres unmarked) [Example 350, N-(3′,5′-dimethoxy-5-trifluoromethyl-biphenyl-2-ylmethyl)-2-(3-fluoro-4-methylsulfonamido-phenyl)-propionamide], for which the pKi at vanilloid receptor (VR1) is 8.24. Besides, at VR1/TRPV1 receptor (setting [1]), the inhibition at 0.1 µM was 4% and the inhibition at 1 µM amounted to 52%.
As to `CCCCC(CCCC)Oc1nc(C(F)(F)F)ccc1CNC(=O)C(C)c1ccc(NS(C)(=O)=O)c(F)c1` (centres unmarked) [Example 352, N-[2-(1-butyl-pentyloxy)-6-trifluoromethyl-pyridin-3-ylmethyl]-2-(3-fluoro-4-methylsulfonamido-phenyl)-propionamide], the pKi on vanilloid receptor (VR1) was 9.30. Also, the inhibition at 5 µM at VR1/TRPV1 receptor (setting [1]) turned out to be 34%. For the same compound, the inhibition at 10 µM on VR1/TRPV1 receptor (@ 10 μM, read-out: inhibition in percent, IC50 (human) after pH stimulus) came out at 61%.
Take `CC(C)COc1nc(C(C)(C)C)ccc1CNC(=O)C(C)c1ccc(NS(C)(=O)=O)c(F)c1` (centres unmarked) [Example 353, N-(6-tert-butyl-2-isobutoxy-pyridin-3-ylmethyl)-2-(3-fluoro-4-methylsulfonamido-phenyl)-propionamide]: the pKi on vanilloid receptor (VR1) was 9.22. On VR1/TRPV1 receptor (setting [1]), the inhibition at 0.1 µM turned out to be 28% and the inhibition at 1 µM was 25%.
As to `CC(C(=O)NCc1ccc(C(F)(F)F)nc1C#Cc1ccccc1)c1ccc(NS(C)(=O)=O)c(F)c1` (centres unmarked) [Example 354, 2-(3-fluoro-4-methylsulfonamido-phenyl)-N-(2-phenylethynyl-6-trifluoromethyl-pyridin-3-ylmethyl)-propionamide], the negative logarithm of the Ki (pKi) on vanilloid receptor (VR1) is 9.10. Further, the pIC50 on VR1/TRPV1 receptor was 7.07.
`COCCCOc1nc(C(F)(F)F)ccc1CNC(=O)C(C)c1ccc(NS(C)(=O)=O)c(F)c1` (centres unmarked) [Example 355, 2-(3-fluoro-4-methylsulfonamido-phenyl)-N-[2-(3-methoxy-propoxy)-6-trifluoromethyl-pyridin-3-ylmethyl]-propionamide]: on vanilloid receptor (VR1), the pKi was 7.82. The compound further showed a pIC50 against VR1/TRPV1 receptor of 5.66.
On to `Cc1cc(C(F)(F)F)nc(N2CCC(Cc3ccccc3)CC2)c1CNC(=O)C(C)c1ccc(NS(C)(=O)=O)c(F)c1` (centres unmarked) [Example 356, N-(4-benzyl-4′-methyl-6′-trifluoromethyl-3,4,5,6-tetrahydro-2H-[1,2′]bipyridinyl-3′-ylmethyl)-2-(3-fluoro-4-methylsulfonamido-phenyl)-propionamide], for which the pKi on vanilloid receptor (VR1) is 8.04. Also, the “inhibition in percent, IC50 (human) after pH stimulus” value on VR1/TRPV1 receptor is on record as “ne @ 1 μM”.
As to `CCOCCCOc1nc(C(F)(F)F)ccc1CNC(=O)C(C)c1ccc(NS(C)(=O)=O)c(F)c1` (centres unmarked) [Example 361, N-[2-(3-ethoxy-propoxy)-6-trifluoromethyl-pyridin-3-ylmethyl]-2-(3-fluoro-4-methylsulfonamido-phenyl)-propionamide], the pKi at vanilloid receptor (VR1) was 8.01. The compound also had a pIC50 at VR1/TRPV1 receptor of 6.34.
Turning to `CC(C(=O)NCc1ccc(C(F)(F)F)nc1OCCOc1ccccc1)c1ccc(NS(C)(=O)=O)c(F)c1` (centres unmarked) [Example 362, 2-(3-fluoro-4-methylsulfonamido-phenyl)-N-[2-(2-phenoxy-ethoxy)-6-trifluoromethyl-pyridin-3-ylmethyl]-propionamide], on vanilloid receptor (VR1), the pKi was 8.82. This compound showed a pIC50 on VR1/TRPV1 receptor of 6.79.
With `COc1cc(COc2nc(C(F)(F)F)ccc2CNC(=O)C(C)c2ccc(NS(C)(=O)=O)c(F)c2)cc(OC)c1` (centres unmarked) [Example 363, N-[2-(3,5-dimethoxy-benzyloxy)-6-trifluoromethyl-pyridin-3-ylmethyl]-2-(3-fluoro-4-methylsulfonamido-phenyl)-propionamide], the pKi at vanilloid receptor (VR1) is 9.15. On VR1/TRPV1 receptor, this compound had a pIC50 of 7.12.
As to `CCCOc1nc(C(C)(C)C)ccc1CNC(=O)C(C)c1ccc(NS(C)(=O)=O)c(F)c1` (centres unmarked) [Example 369, N-((6-tert-butyl-2-propoxypyridin-3-yl)methyl)-2-(3-fluoro-4-(methylsulfonamido)phenyl)propanamide], the pKi at vanilloid receptor (VR1) was 8.77. The compound also showed a pIC50 against VR1/TRPV1 receptor of 6.74.
For the compound `COCCCOc1nc(C(C)(C)C)ccc1CNC(=O)C(C)c1ccc(NS(C)(=O)=O)c(F)c1` (centres unmarked) [Example 370, N-((6-tert-butyl-2-(3-methoxypropoxy)pyridin-3-yl)methyl)-2-(3-fluoro-4-(methylsulfonamido)phenyl)propanamide], the negative-log Ki (pKi) on vanilloid receptor (VR1) is 8.25. For the same compound, the pIC50 against VR1/TRPV1 receptor is 6.60.
Regarding `COc1nc(C(C)(C)C)ccc1CNC(=O)C(C)c1ccc(NS(C)(=O)=O)c(F)c1` (centres unmarked) [Example 372, N-((6-tert-butyl-2-methoxypyridin-3-yl)methyl)-2-(3-fluoro-4-(methylsulfonamido)phenyl)propanamide], at vanilloid receptor (VR1), the pKi is 7.84. In addition, the inhibition at 1 µM on VR1/TRPV1 receptor (setting [1]) worked out at 52%.
As to `CCOc1nc(C(C)(C)C)ccc1CNC(=O)C(C)c1ccc(NS(C)(=O)=O)c(F)c1` (centres unmarked) [Example 373, N-((6-tert-butyl-2-ethoxypyridin-3-yl)methyl)-2-(3-fluoro-4-(methylsulfonamido)phenyl)propanamide], the negative-log Ki (pKi) at vanilloid receptor (VR1) is 7.83. Moreover, the pIC50 at VR1/TRPV1 receptor is 6.31.
On to `CC(C)Oc1nc(C(C)(C)C)ccc1CNC(=O)C(C)c1ccc(NS(C)(=O)=O)c(F)c1` (centres unmarked) [Example 374, N-((6-tert-butyl-2-isopropoxypyridin-3-yl)methyl)-2-(3-fluoro-4-(methylsulfonamido)phenyl)propanamide], for which, at vanilloid receptor (VR1), the pKi is 8.64. Besides, at VR1/TRPV1 receptor, the pIC50 is 6.50.
Take `CCCCCCOc1nc(C(F)(F)F)ccc1CNC(=O)C(C)c1ccc(NS(C)(=O)=O)c(F)c1` (centres unmarked) [Example 376, 2-(3-fluoro-4-(methylsulfonamido)phenyl)-N-((2-(hexyloxy)-6-(trifluoromethyl)pyridin-3-yl)methyl)propanamide]: the negative-log Ki (pKi) on vanilloid receptor (VR1) is 9.10. The pIC50 at VR1/TRPV1 receptor was 7.70.
The matching figures for `CCOCCOc1nc(C(C)(C)C)ccc1CNC(=O)C(C)c1ccc(NS(C)(=O)=O)c(F)c1` (centres unmarked) [Example 378, N-((6-tert-butyl-2-(2-ethoxyethoxy)pyridin-3-yl)methyl)-2-(3-fluoro-4-(methylsulfonamido)phenyl)propanamide]: 7.62 and 6.49.
